Assay results as given in patent publication US20220288001A1, “CREATINE FOR IMMUNOTHERAPY” (The Regents of the University of California, priority 2019, published 2022).
Entries after “also recorded” stand apart in the source; their conditions may differ.

Assays:
B16-OVA melanoma = B16-OVA melanoma model in C57BL/6J WT mice, creatine supplementation; format: in vivo, mouse; conditions: i.p. injection or dietary supplementation, both routes
Protocol: To establish solid tumors, mice were s.c. injected above the right flank with 1×10^6 B16-OVA or 3×10^5 MC38 cells. Before injection, cells in log phase of growth were harvested and suspended in phosphate-buffered saline (PBS), and 50 μl of cell suspension were injected subcutaneously above the flank. Tumor size was periodically measured with a digital Vernier caliper (Thermo Fisher Scientific). For creatine supplementation via i.p. injection, […] monohydrate (cat #C3630, Sigma-Aldrich) was dissolved in sterile PBS and i.p. injected to experimental animals daily at a dose of 10.5 mg per animal per injection. […] To study the effects of creatine supplementation on suppressing tumor growth, B6 mice were inoculated with B16-OVA tumor cells and monitored for tumor growth, with or without receiving creatine supplementation via i.p. injection or diet. […] To study the T cell-dependence of creatine supplementation induced anti-tumor effects, B6-OVA tumor growth was monitored and compared in B6 mice receiving i.p. injection of an anti-CD3 T cell depleting antibody (clone RMP1-14; 100 μg/mouse/injection, twice per week) or an isotype control antibody (clone LTF-2, 100 μg/mouse/injection, twice per week), with or without i.p. supplement of creatine.

[1] = test system: tumor-infiltrating CD8 T cells; assay: Flow cytometry phenotype of tumor-infiltrating CD8 T cells in B16-OVA model; format: in vivo, mouse; conditions: B16-OVA tumors collected day 17; creatine supplementation
Source text: Fluorochrome-conjugated monoclonal antibodies specific for mouse CD45.2 (cat #109820; clone 104), TCRβ (cat #109220; clone H57-597), CD4 (cat #100531; clone RM4-5), IFN-γ (cat #505806; clone XMG1.2), Granzyme B (cat #372208; clone QA16A02). TCR Vα2 (cat #127809; clone B20.1), CD69 (cat #104508; clone H1.2F3), CD25 (cat #102006; clone PC61), CD8 (cat #100732: clone 53-6.7), CD44 (cat #103030; clone IM7), LAG-3 (CD223) (cat #125207; clone C9B7W), and Tim-3 (CD366) (cat #119705; clone RMT3-23) were purchased from BioLegend. […] Stained cells were analyzed using a MACSQuant Analyzer 10 Flow Cytometer (Miltenyi Biotee). […] To assess gene expression, CD45^+ immune cells were sorted from TIIs using flow cytometry then analyzed for CrT mRNA expression using qPCR. To assess T cell activation status, TIIs were analyzed for surface activation marker (CD25 and PD-1) expression using flow cytometry. […] TIIs were analyzed for intracellular Granzyme B expression using flow cytometry. To assess T cell cytokine production, Tis were stimulated with PMA (50 ng/ml)+Ionomycine (500 ng/ml) in the presence of GolgiStop (4 μl per 6 ml culture) for 4 hours, then analyzed for intracellular cytokine (IL-2 and IFN-γ) production using flow cytometry. […]

B16-OVA tumors = B16-OVA tumors in C57BL/6J WT mice depleted of T cells by anti-CD3 antibody, creatine supplementation; format: in vivo, mouse; conditions: B16-OVA in C57BL/6J WT mice depleted of T cells via i.p. anti-CD3 depletion antibody
Protocol: To establish solid tumors, mice were s.c. injected above the right flank with 1×10^6 B16-OVA or 3×10^5 MC38 cells. Before injection, cells in log phase of growth were harvested and suspended in phosphate-buffered saline (PBS), and 50 μl of cell suspension were injected subcutaneously above the flank. Tumor size was periodically measured with a digital Vernier caliper (Thermo Fisher Scientific). For creatine supplementation via i.p. injection, […] monohydrate (cat #C3630, Sigma-Aldrich) was dissolved in sterile PBS and i.p. injected to experimental animals daily at a dose of 10.5 mg per animal per injection. To study the effects of creatine supplementation on suppressing tumor growth, B6 mice were inoculated with B16-OVA tumor cells and monitored for tumor growth, with or without receiving creatine supplementation via i.p. injection or diet. […] To study the T cell-dependence of creatine supplementation induced anti-tumor effects, B6-OVA tumor growth was monitored and compared in B6 mice receiving i.p. injection of an anti-CD3 T cell depleting antibody ([…]; 100 μg/mouse/injection, twice per week) or an isotype control antibody (clone LTF-2, 100 μg/mouse/injection, twice per week), with or without i.p. supplement of creatine.

cancer growth = conditions: early studies (Kristensen et al., 1999; Miller et al., 1993); cited from earlier work

CN(CC(=O)O)C(=N)N [creatine]
tumor growth (B16-OVA melanoma): effectively suppressed tumor growth to a similar extent; also recorded: tumor suppression benefits
“exhaustion-prone” phenotype cells (PD-1hiCD62Llo) among tumor-infiltrating CD8 T cells [1]: significant reduction
tumor growth (B16-OVA tumors): could not be suppressed
direct inhibition of cancer growth (cancer growth): could directly inhibit cancer growth
